Measurements from patent publication US20050272068A1, “UCH-L1 expression and cancer therapy” (The Brigham and Women's Hospital, Inc., priority 2004, published 2005).
Entries after “also recorded” stand apart in the source; their conditions may differ.

What was measured:
H358 = experiment: Cell growth by counting living cells as a function of time, H358; type: cell-based; conditions: 100 nM FTI-277, H358 does not express UCH-L1, vs DMSO control
Description: (§1) To test the effect of farnesyl transferase inhibitor in a cell culture model, H1299 and H358 (FIG. 5B) were treated with 100 nM FTI-277 or DMSO. As a comparison, H1299 was also treated with 5 μM LDN-57414 (UCH-L1 inhibitor), which we have previously shown to increase H1299 cell proliferation (Liu et al 2003). Cell growth was quantified by counting the number of living cells as a function of time. […] The initial acceleration of cell growth in H1299, thus, may be the consequence of inhibition on UCH-L1 farnesylation. This possibility may explain the minimal clinical activity of farnesyl transferase inhibitor in treating patients with NSCLC.

SH-SY5Y cells = experiment: alpha-synuclein toxicity in SH-SY5Y cells infected with alpha-synuclein-expressing adenovirus (Trypan blue viable cell counting, MTT assay); type: cell-based; conditions: SH-SY5Y cells overexpressing alpha-synuclein via adenoviral vector, compounds for 48 hours, vs DMSO
Description: (§2) Viral Infection: Viral infection and MTT assay in SH—SY5Y cells: The viruses were amplified and purified according to the published procedure. SH—SY5Y cells were grown on 100 mm petri-dishes and induced with 100 nM RA for 3-5 days before the virus infection with M.I.O at 75. Viruses were diluted with DPBS to desired M.I.O. After four hours of incubation, 10 ml growth medium was added. On the second day, cells were splitted into 96-well plates and treated with compounds for next 48 hours. The growth medium in each well was replaced with growth medium with 5 ug/ml MTT. Medium was removed after three hours incubation, and 200 ul isopropyl (0.04N HCl) was added into each well. The signal was read at 570 nm.
Viable cell counting: At stated time poins, SH—SY5Y cells were trypsinized with 100 ul trypsin-EDTA for 1 minute and neutralized with 400 ul growth medium. Cell suspension was made up by mixing 0.2 ml of cells in growth medium, 0.3 ml of HBSS and 0.5 ml of 0.4% Trypan Blue solution. Viable cell numbers were counted by standard cell counting chamber.
Since α-synuclein neurotoxicity is dose-dependent, it follows that accumulation of α-synuclein, caused by UCH-L1 farnesylation, should promote its toxicity. […] These cells express high endogenous levels of UCH-L1. […] The unit of y-axis is 10^5/ml. (F) Cell viability was assessed by the amount of metabolic activity using MTT assay. […]

H1299 = experiment: Cell growth by counting living cells as a function of time, H1299; type: cell-based
Description: as §1

UCH-L1 [1] = experiment: UCH-L1 species in SH-SY5Y cells by 2D electrophoresis and Western blotting (membrane, cytosolic, total); type: cell-based
Description: Membrane fractionation: Cells were harvested by scraping and washed with PBS. Cell pellet was suspended in lysis buffer (50 mM Tris-HCl, 1 mM EDTA) supplemented with protease inhibitor cocktail (Sigma) and homogenized by passing through 26G needles 10 times. Suspension was clarified by spinning at 600 g for 5 minutes. Clarified suspension was ultracentrifuged at 100,000 g for 2 hours and separated into membrane and cytosol. Membrane fraction was washed with washing buffer (50 mM Tris-HCl, 1 mM EDTA 1M NaCl), and pelleted each time with bench-top centrifuge.
2D electrophoresis: For the isolation of total cellular protein, cultured SH—SY5Y cells maintained as described above were rinsed with ice-cold PBS. Cells were lysed in 1 ml dSDS buffer (50 mM Tris-HCl, pH 8.0 0.1% SDS) supplemented with protease inhibitor cocktail. Lysates were boiled for 3 min, and were treated with Dnase and Rnase as described. Lysates were precipitated with ice-cold acetone for at least 2 hours, and pellets were resuspended in 2D sample buffer (8M urea, 0.5% CHAPS, 0.2% DTT, 0.5% IPG buffer, 0.002% bromophenol blue). 2D electrophoresis was carried out according to manufacture's protocol (Amersham Life Science). 7 cm pH 4-7 strips were used. For SH—SY5Y membrane fraction, culture SH—SY5Y cells were rinsed with cold PBS and harvested with lysis buffer (50 mM Tris-HCl, pH 8.0, 1 mM ZnAc2, 250 mM sucrose). Lysate was passed through 25 G needles for several times and spun at 1000 g for 5 min. Supernatant was centrifuged at 200,000 g for 2 hours. Pellet was extensively washed with lysis buffer and extracted with cold acetone. Pellet was resuspended in 2D sample buffer.
Western Blotting: Following transfer of SDS gels onto NC membrane, all membranes were blocked with 5% non-fat milk in TBST (50 mM Tris-HCl pH7.4, 150 mM NaCl, 0.1% Tween 20), and incubated with primary antibody overnight with 1% BSA in TBST, washed three times with TBST, and incubated with horseradish peroxidase-conjugated secondary antibody for 1 hour (Promega). Bound antibodies were detected using enhanced chemiluminascence (NEM). […]

α-synuclein [2] = experiment: Amount of alpha-synuclein in infected SH-SY5Y cells by Western blotting; type: cell-based; conditions: SH-SY5Y cells infected with alpha-synuclein-expressing adenovirus, normalized against actin
Description: as §2
Western Blotting: Following transfer of SDS gels onto NC membrane, all membranes were blocked with 5% non-fat milk in TBST (50 mM Tris-HCl pH7.4, 150 mM NaCl, 0.1% Tween 20), and incubated with primary antibody overnight with 1% BSA in TBST, washed three times with TBST, and incubated with horseradish peroxidase-conjugated secondary antibody for 1 hour (Promega). Bound antibodies were detected using enhanced chemiluminascence (NEM).
Since α-synuclein neurotoxicity is dose-dependent, it follows that accumulation of α-synuclein, caused by UCH-L1 farnesylation, should promote its toxicity. […] (F) Cell viability was assessed by the amount of metabolic activity using MTT assay. […]

UCH-L1 [3] = experiment: Pulse-chase experiment, UCH-L1 turnover in SH-SY5Y cells; type: cell-based; conditions: pulse-chase experiment not shown
Description: Treatment with FTI-277 reduced the total amount of UCH-L1 in SH—SY5Y cells and increased its rate of turnover (pulse-chase experiment not shown), in addition to reducing the amount of membrane-associated protein.

α-synuclein [4] = experiment: alpha-synuclein degradation assay in transfected COS-7 cells (quantitative Western blotting); type: cell-based; conditions: 35 μM lactacystin 24 hours, normalized against actin, defines the 100% reference
Description: Plasmids: C220S cDNA was generated by PCR site-specific mutagenesis. For the PCR, the 5′ primer is uchforw ([…]) (SEQ ID NO: 5), and 3′ primer is uchc220s ([…] TGCTGAGAGC) (SEQ ID NO: 6). Wt UCH-L1 served as the template. The PCR fragment was inserted into pcDNA vector. For S18YC220S mutant, S18Y UCH-L1 served as the template in PCR. For the FLAG tagged UCH-L1, the 5′ primer is FLAGuchforw ([…] GCAGCTCAAGCCGATGGAG) (SEQ ID NO: 7), and the 3′ primer is uchrev ([…]) (SEQ ID NO: 8). Wt UCH-L1 or C220S served as the template. PCR fragment was purified and inserted into pcDNA vector. For the FLAG tagged UCH-L3, the 5′ primer is L3HindIII ([…] CTG) (SEQ ID NO: 9), the 3′primer is L3XhoISAA (ATCCTCGAGCTATGCT GCAGAAAGAGCAATCGCA) (SEQ ID NO: 10). For the UCH-L3 CKAA variant, the 5′ primer is L3 HindIII and the 3′ primer is L3XhoICKAA (ATCCTCGAGCTA […]) (SEQ ID NO: 11). α-synuclein degradation assay: Liphitamine 2000 was used to transfect COS-7 cells according to the Invitrogen protocol. Transfected cells were cultured at 37° C. for 48 hours before being treated with 35 μM lactacystin or DMSO. After 24 hours of incubation, the cells were lysed with Tris buffer (50 mM Tris, 2% SDS, 0.1% NP-40), and subjected to SDS-PAGE, followed by quantitative Western blotting. […]

[5] = molecular target: the molecule itself; experiment: self-oligomerisation of purified protein, method not described
[6] = compared to cells treated with DMSO

## COC(=O)[C@H](CCSC)NC(=O)c1ccc(NC[C@@H](N)CS)cc1-c1ccccc1 [FTI-277]
H358
  initial cell growth in H358: induced initial toxicity
SH-SY5Y cells
  alpha-synuclein toxicity (loss of cells / viability): significantly decreased loss of cells; also recorded: rescued; also recorded: protects
H1299; 100 nM FTI-277, vs DMSO control
  initial cell growth in H1299: promoted initial cell growth
H1299; 100 nM FTI-277 or 5 μM LDN-57414
  H1299 cell growth after 24 hours of compound treatment: began to show toxicity
UCH-L1 [1]
  total amount of UCH-L1: reduced
UCH-L1 [1]; [6]
  amount of cytosolic UCH-L1: without affecting
  amount of membrane bound UCH-L1: significant decrease; also recorded: decreased; also recorded: reducing
α-synuclein [2]
  amount of alpha-synuclein: reduced; also recorded: reducing
UCH-L1 [3]
  UCH-L1 rate of turnover: increased

## CC(=O)N[C@@H](CSC(=O)[C@]1([C@@H](O)C(C)C)NC(=O)[C@H](C)[C@@H]1O)C(=O)O [lactacysteine]
α-synuclein [4]
  accumulation of alpha-synuclein: 100%

B1: UCH-L1 C220S mutant (S18 background), expressed in E. coli and purified (enzyme, UniProt P09936 1-223, looked up)
chain: MQLKPMEINPEMLNKVLSRLGVAGQWRFVDVLGLEEESLGSVPAPACALLLLFPLTAQHENFRKKQIEELKGQEVSPKVYFMKQTIGNSCGTIGLIHAVANNQDKLGFEDGSVLKQFLSETEKMSPEDRAKCFEKNEAIQAAHDAVAQEGQCRVDDKVNFHFILFNNVDGHLYELDGRMPFPVNHGASSEDTLLKDAAKVCREFTEREQGEVRFSAVALSKAA
notes: also called C220S variant
[5]
  binding result: binds
